Measurements from article PMC10404814, “Fluorescent membrane potential assay for drug screening on Kv10.1 channel: identification of BL-1249 as a channel activator” (Frontiers in Pharmacology, 2023).

How the values were obtained:
Assay type in all cases: cell-based
Kv10.1 [1] = target: T1, Kv10.1 (Homo sapiens, UniProt O95259); assay: whole-cell voltage-clamp of HEK293 cells stably expressing human Kv10.[…] (activator); no effect in HEK-WT
T1 construct: gene KCNH1
T1 sequence (O95259 1-989): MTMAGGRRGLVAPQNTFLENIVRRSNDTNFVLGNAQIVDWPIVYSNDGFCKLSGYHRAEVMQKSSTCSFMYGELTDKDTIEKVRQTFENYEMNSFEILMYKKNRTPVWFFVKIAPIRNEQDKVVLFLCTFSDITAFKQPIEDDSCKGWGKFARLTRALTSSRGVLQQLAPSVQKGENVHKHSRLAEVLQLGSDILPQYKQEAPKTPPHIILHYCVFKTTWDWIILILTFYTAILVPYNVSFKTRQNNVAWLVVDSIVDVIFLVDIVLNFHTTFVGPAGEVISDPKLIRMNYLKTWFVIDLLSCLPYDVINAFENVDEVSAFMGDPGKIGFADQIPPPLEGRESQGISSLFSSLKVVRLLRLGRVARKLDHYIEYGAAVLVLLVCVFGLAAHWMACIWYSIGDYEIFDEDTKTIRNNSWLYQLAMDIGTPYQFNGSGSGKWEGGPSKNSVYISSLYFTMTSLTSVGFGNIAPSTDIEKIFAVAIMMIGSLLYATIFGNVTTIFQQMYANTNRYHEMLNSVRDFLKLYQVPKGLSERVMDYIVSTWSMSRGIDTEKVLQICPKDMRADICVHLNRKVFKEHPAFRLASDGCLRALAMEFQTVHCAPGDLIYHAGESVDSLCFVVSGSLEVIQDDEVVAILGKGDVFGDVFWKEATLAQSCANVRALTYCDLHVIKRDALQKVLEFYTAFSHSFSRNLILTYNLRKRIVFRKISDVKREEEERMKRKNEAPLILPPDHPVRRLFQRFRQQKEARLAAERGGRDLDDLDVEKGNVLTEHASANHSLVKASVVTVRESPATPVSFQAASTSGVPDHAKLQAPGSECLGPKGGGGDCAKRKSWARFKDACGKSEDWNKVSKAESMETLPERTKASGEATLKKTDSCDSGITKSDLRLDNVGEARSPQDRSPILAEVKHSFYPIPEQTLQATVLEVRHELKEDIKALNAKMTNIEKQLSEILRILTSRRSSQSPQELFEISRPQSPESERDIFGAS

Kv10.1 [2] = target: T1, Kv10.1; assay: whole-cell voltage-clamp of HEK293 cells stably expressing human Kv10.[…]
Kv10.1 [3] = target: T1, Kv10.1; assay: FLIPR membrane potential assay in HEK-Kv10.[…] cells, […]; settings: read-out: % decrease at 100 μM
Kv10.1 [4] = target: T1, Kv10.1; assay: as above; settings: read-out: % decrease at 50 μM

SMILES	IC50 (Kv10.1 [2])	inhibition at 100 µM (Kv10.1 [3])	other results
c1ccc(-c2nnn[nH]2)c(Nc2cccc3c2CCCC3)c1 [BL, BL-1249]	–	–	EC50 (Kv10.1 [1]): 36.5 µM
Clc1ccc(COC(Cn2ccnc2)c2ccc(Cl)cc2Cl)c(Cl)c1 (stereo not drawn) [MN, miconazole nitrate]	23.6 ± 5 µM	–	–
CN(C)CCC=C1c2ccccc2CCc2ccccc21 [amitriptyline]	–	25.5%	–
COc1ccc(CCN2CCC(Nc3nc4ccccc4n3Cc3ccc(F)cc3)CC2)cc1 [astemizole]	–	–	inhibition at 50 µM (Kv10.1 [4]): 34.8%
CNCCC(Oc1ccc(C(F)(F)F)cc1)c1ccccc1 (stereo not drawn) [fluoxetine]	11.2 ± 6.2 µM	–	–
CN(C)C(=O)C(CCN1CCC(O)(c2ccc(Cl)cc2)CC1)(c1ccccc1)c1ccccc1 [loperamide]	–	31.9%	–
